Laboratory results: ChEMBL document CHEMBL3392951, “Discovery of indole-derived pyridopyrazine-1,6-dione γ-secretase modulators that target presenilin” (Bioorg Med Chem Lett, 2015)

Experiment: Octanol-water partition coefficient, log D of the compound at pH 7.4 by shake flask method
Assay type: physicochemical
Work on `Cc1cn(-c2ccc3n(c2=O)CCN(Cc2cccc4ccccc24)C3=O)cn1` yielded a logD of 2.7.
In the case of `Cc1cn(-c2ccc3n(c2=O)CCN(Cc2cccc4ccc(C(F)(F)F)cc24)C3=O)cn1`, the logD is reported as 3.3.
Compound `CCn1cc(CN2CCn3c(ccc(-n4cnc(C)c4)c3=O)C2=O)c2ccc(C(F)(F)F)cc21` has a logD of 4.1.
